Measured values as given in patent US20200061062A1, “INHIBITORS OF HUMAN PHOSPHATIDYLINOSITOL 3-KINASE DELTA” (ICOS Corporation, priority 2000, published 2020).
Like-named read-outs stand apart in the source and are kept apart here.

Columns and labels:
[1] = target: T1, PI3Kβ (Homo sapiens, UniProt P42338); assay: Biochemical assay using 200 μM ATP, Beta
T1 construct: His tag (pFastbac HTa vector) (N); FLAG (N); made in house; host or cells: Sf21 insect cells (baculovirus)
Experimental: (§3) PI3Kδ catalyzes a phosphotransfer from γ-[^32P]ATP to PIP2/PS liposomes at the D3′ position of the PIP2 lipid inositol ring. This reaction is MgCl2 dependent and is quenched in high molarity potassium phosphate buffer pH 8.0 containing 30 mM EDTA. […] The reaction products (and all unlabelled products) are transferred to a 96-well, prewetted PVDF filter plate, filtered, and washed in high molarity potassium phosphate. Scintillant is added to the dried wells and the incorporated radioactivity is quantitated.
(§4) This dilution established a final concentration of 200 μM ATP in the reaction volume. The reaction was stopped with 150 μL quench buffer (1.0 M potassium phosphate pH 8.0, 30 mM EDTA). A portion of the quenched solution (180 μL) was then transferred to a PVDF filter plate (Millipore # MAIP NOB prewetted with sequential 200 μL washes of 100% methanol, water, and finally 1.0 M potassium phosphate pH 8.0 wash buffer).
(§5) The PVDF filter plate was aspirated under moderate vacuum (2-5 mm Hg), washed with 5×200 μL of wash buffer, and then dried by aspiration. The filter was subsequently blotted, allowed to air dry completely, and inserted into a Wallac counting cassette with 50 μL of Ecoscint scintillation cocktail added per well.
(§6) Subsequent selectivity assays were done similarly using the same 3× substrate stocks except they contained 0.05 mCi/mL γ[^32P]ATP and 3 mM PIP2. Subsequent selectivity assays also used the same 3× enzyme stocks, except they now contained 3 nM of any given PI3K isoform.
(§7) For all selectivity assays, the test compounds were weighed out and dissolved into 10-50 mM stocks in 100% DMSO (depending on their respective solubilities) and stored at −20° C. […] From these dilutions, 20 μL was added into the assay wells alongside water blanks used for the enzyme (positive) control and the no enzyme (background) control.
(§8) This selectivity protocol is identical to that described above, except the 3× stock ATP concentration was 600 μM.

[2] = target: T2, PI3Kγ (Homo sapiens, UniProt P48736); assay: Biochemical assay of PI3K potency and selectivity using 20 μM ATP, Gamma; settings: for Gamma/Delta Ratio: ratio of IC50 values
T2 construct: His tag (pFastbac HTb vector) (N); FLAG (N); made in house; host or cells: Sf21 insect cells (baculovirus)
From the text: Recombinant baculoviruses containing the above clones were generated using manufacturer's recommended protocol (Life Technologies). Baculoviruses expressing His-tagged p110α, p110γ, or p110δ catalytic subunit and p85 subunit were coinfected into Sf21 insect cells. To enrich the heterodimeric enzyme complex, an excess amount of baculovirus expressing p85 subunit was infected, and the His-tagged p110 catalytic subunit complexed with p85 was purified on nickel affinity column. […] In an alternate approach, p101 can be cloned into baculovirus, to permit coexpression with its preferred binding partner p110γ. […]

[3] = test system: Murine splenocytes (Balb/c); assay: B cell proliferation in response to cell surface IgM stimulation; format: cell-based; settings: Mus musculus, Splenocyte; stimulated B cell proliferation; read-out: Mouse BCR Stim (EC50)
Experimental: In the above experiment, the B cells were stimulated using PANSORBIN®. The effect of D-000 on B cell proliferation response when they were stimulated through their cell surface IgM using anti-IgM antibody also was measured. Murine splenocytes (Balb/c) were plated into 96-well microtiter plates at 2×10^5 cells per well in 10% FBS/RPMI. Appropriate dilutions of test inhibitor in complete medium were added to the cells and the plates were incubated for 30-60 minutes prior to the addition of stimulus. Following the preincubation with test inhibitor an F(ab′)2 preparation of goat antibody specific for the μ-chain of mouse IgM was added to the wells at a final concentration of 25 μg/mL. The plates were incubated at 37° C. for 3 days and 1 μCi of [^3H]-thymidine was added to each well for the final four hours of culture. The plates were harvested onto fiber filters washed and the incorporation of radiolabel was determined using a beta counter (Matrix 96, Packard Instrument Co., Downers Grove, Ill.) and expressed as counts per minute (CPM).
(§1) Using the methods described in Examples 3-5, above, compounds of the invention were tested for inhibitory activity and potency in assays of stimulated B and T cell proliferation, neutrophil (PMN) migration, and neutrophil (PMN) elastase release. In Table 4, the values shown are effective concentrations of the compound (EC50; μM). Where no value is given, no assay was performed.

[4] = test system: human neutrophils; assay: Elastase exocytosis from neutrophils (fMLP-induced); format: cell-based; settings: neutrophil (PMN) elastase release
Experimental: Aliquots (8 mL) of heparinized blood from healthy volunteers were layered on 3 mL cushions of 7.3% FICOLL® (Sigma, St. Louis, Mo.) and 15.4% HYPAQUE® (Sigma) and centrifuged at 900 rpm for 30 min at room temperature in a table top centrifuge (Beckman). The neutrophil-rich band just above the FICOLL®-HYPAQUE® cushion was collected and washed with Hanks' balanced salt solution (HBSS) containing 0.1% gelatin. Residual erythrocytes were removed by hypotonic lysis with 0.2% NaCl. The neutrophil preparation was washed twice with HBSS containing 0.1% gelatin and used immediately.
In addition to superoxide generation, activated neutrophils also respond by releasing several proteases that are responsible for the destruction of tissues and cartilage during inflammation. As an indication of protease release, the effect of D-000 on elastase exocytosis was measured. Elastase exocytosis was quantitated by modification of the procedure described by Ossanna et al. (J Clin Invest, 77:1939-1951 (1986)), as follows. Purified human neutrophils (0.2×10^6) (treated with either DMSO or a serial dilution of D-000 in DMSO) were stimulated with fMLP in PBS containing 0.01 mg/mL cytochalasin B, 1.0 μM sodium azide (NaN3), 5 μg/mL L-methionine and 1 μM fMLP for 90 min at 37° C. in a 96-well plate. At the end of the incubation period, the plate was centrifuged for 5 min at 1000 rpm, and 90 μL of the supernatant was transferred to 10 μL of 10 mM solution of an elastase substrate peptide, MeO-suc-Ala-Ala-Pro-Val-pNA, wherein MeO-suc=methoxy-succinyl; pNA=p-nitroanilide (Calbiochem, San Diego, Calif.). Absorbance at 410 nm was monitored for 2 hr in a 96-well plate reader. To measure the relative amounts of elastase excytosed, all absorbance values were normalized to the values without any inhibitor. […] Inhibition was half-maximal at a concentration of about 2-3 μM D-000.
as §1

[5] = target: T3, PI3Kδ (Homo sapiens, UniProt O00329, S253N); assay: Biochemical assay using 200 μM ATP, Delta;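 note: radiometric filter-binding assay: PI3Kδ transfers ³²P from γ-[³²P]ATP onto PIP2/PS liposomes, counted by scintillation, enzyme-only wells as positive control, no-enzyme wells as background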
[6] = target: T4, PI3Kα (Homo sapiens, UniProt P42336); assay: Biochemical assay using 200 μM ATP, Alpha
T4 construct: His tag (pFastbac HTb vector) (N); FLAG; made in house; host or cells: Sf21 insect cells (baculovirus)
Experimental: as §3, §4, §5, §6, §7, §8

[7] = target: T2, PI3Kγ; assay: Biochemical assay using 200 μM ATP, Gamma
[8] = target: T3, PI3Kδ; assay: Biochemical assay of PI3K potency and selectivity using 20 μM ATP, Delta; parameters: His tag (pFastbac HTb vector) (N); FLAG; made in house; host or cells: Sf21 insect cells (baculovirus); settings: 20 μM ATP; read-out: Delta IC50
From the text: (§2) Recombinant PI3K heterodimeric complexes consisting of a p110 catalytic subunit and a p85 regulatory subunit were overexpressed using the BAC-TO-BAC® HT baculovirus expression system (GIBCO/BRL), and then purified for use in biochemical assays. The four Class I PI 3-kinases were cloned into baculovirus vectors as follows: […]

[9] = target: T4, PI3Kα; assay: Biochemical assay of PI3K potency and selectivity using 20 μM ATP, Alpha; settings: for Alpha/Delta Ratio / IC50: 20 μM ATP; for Alpha/Delta Ratio: ratio of IC50 values, > = hypothetical ratio with 100 μM substituted for the missing IC50; for IC50: read-out: Alpha IC50
From the text: as §2

[10] = target: T1, PI3Kβ; assay: Biochemical assay of PI3K potency and selectivity using 20 μM ATP, Beta; settings: 20 μM ATP; for Beta/Delta Ratio: ratio of IC50 values, > = hypothetical ratio with 100 μM substituted for the missing IC50; for remaining activity at 100 µM: read-out: Beta: percent activity remaining at 100 μM, 100 μM compound did not inhibit by at least 50%; for IC50: read-out: Beta IC50
Experimental: Recombinant PI3K heterodimeric complexes consisting of a p110 catalytic subunit and a p85 regulatory subunit were overexpressed using the BAC-TO-BAC® HT baculovirus expression system (GIBCO/BRL), and then purified for use in biochemical assays. The four Class I PI 3-kinases were cloned into baculovirus vectors as follows:
The 3× substrate for the HTS contained 0.6 mM Na2ATP, 0.10 mCi/mL γ-[^32P]ATP (NEN, Pittsburgh, Pa.), 6 μM PIP2/PS liposomes (Avanti Polar Lipids, Inc., […].), in 20 mM HEPES, pH 7.4.

[11] = test system: T cell proliferation; assay: Stimulated T cell proliferation (Mouse TCE Stim, Table 4); format: cell-based; settings: stimulated T cell proliferation, read-out: Mouse TCE Stim (EC50)

T3 sequence (O00329 whole entry S253N): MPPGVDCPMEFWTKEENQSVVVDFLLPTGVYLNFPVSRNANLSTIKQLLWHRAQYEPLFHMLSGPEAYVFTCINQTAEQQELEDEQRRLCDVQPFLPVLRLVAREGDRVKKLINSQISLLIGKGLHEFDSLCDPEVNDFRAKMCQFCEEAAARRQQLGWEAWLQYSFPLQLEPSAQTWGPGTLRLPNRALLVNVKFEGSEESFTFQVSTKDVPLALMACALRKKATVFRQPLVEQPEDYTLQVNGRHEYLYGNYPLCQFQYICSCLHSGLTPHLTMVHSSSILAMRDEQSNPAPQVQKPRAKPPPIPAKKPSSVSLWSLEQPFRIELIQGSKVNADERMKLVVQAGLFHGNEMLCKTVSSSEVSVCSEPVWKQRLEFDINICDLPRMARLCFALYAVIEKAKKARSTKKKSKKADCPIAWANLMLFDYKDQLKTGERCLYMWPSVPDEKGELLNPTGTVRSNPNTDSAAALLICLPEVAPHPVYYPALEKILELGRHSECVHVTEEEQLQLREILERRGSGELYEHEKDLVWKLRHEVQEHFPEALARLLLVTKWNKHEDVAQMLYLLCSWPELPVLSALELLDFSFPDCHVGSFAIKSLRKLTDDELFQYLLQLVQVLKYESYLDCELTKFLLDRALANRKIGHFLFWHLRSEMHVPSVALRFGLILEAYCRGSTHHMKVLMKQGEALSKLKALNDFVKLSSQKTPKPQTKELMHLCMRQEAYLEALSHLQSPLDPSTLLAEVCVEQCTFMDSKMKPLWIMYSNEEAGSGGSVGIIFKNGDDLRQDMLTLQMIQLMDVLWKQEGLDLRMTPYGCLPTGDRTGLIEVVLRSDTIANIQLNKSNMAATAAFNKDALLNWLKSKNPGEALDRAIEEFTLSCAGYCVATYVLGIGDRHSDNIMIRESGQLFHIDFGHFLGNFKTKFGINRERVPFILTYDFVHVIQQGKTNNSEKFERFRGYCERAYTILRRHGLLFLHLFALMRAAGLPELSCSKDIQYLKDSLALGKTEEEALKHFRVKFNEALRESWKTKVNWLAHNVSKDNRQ
T3 sequence (P27986 whole entry partner): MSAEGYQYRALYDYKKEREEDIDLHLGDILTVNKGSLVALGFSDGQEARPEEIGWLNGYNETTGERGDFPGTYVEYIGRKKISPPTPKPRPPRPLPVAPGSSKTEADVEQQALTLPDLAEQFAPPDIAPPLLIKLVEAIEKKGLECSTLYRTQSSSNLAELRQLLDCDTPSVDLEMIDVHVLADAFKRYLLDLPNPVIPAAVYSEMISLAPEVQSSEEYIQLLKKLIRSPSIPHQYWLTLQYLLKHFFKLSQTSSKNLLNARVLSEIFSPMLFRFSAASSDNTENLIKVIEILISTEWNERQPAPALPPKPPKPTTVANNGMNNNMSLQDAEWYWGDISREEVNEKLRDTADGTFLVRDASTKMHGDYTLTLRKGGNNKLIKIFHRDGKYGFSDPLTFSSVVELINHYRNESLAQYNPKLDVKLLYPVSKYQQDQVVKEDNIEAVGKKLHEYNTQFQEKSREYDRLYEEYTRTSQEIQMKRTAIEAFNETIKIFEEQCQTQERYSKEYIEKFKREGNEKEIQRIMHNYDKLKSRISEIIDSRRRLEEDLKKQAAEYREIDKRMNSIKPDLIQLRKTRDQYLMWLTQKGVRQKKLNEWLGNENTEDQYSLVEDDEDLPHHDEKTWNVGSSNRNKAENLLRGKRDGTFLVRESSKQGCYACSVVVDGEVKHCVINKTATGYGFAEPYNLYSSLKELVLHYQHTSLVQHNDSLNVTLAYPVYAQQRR
T4 sequence (P42336 whole entry): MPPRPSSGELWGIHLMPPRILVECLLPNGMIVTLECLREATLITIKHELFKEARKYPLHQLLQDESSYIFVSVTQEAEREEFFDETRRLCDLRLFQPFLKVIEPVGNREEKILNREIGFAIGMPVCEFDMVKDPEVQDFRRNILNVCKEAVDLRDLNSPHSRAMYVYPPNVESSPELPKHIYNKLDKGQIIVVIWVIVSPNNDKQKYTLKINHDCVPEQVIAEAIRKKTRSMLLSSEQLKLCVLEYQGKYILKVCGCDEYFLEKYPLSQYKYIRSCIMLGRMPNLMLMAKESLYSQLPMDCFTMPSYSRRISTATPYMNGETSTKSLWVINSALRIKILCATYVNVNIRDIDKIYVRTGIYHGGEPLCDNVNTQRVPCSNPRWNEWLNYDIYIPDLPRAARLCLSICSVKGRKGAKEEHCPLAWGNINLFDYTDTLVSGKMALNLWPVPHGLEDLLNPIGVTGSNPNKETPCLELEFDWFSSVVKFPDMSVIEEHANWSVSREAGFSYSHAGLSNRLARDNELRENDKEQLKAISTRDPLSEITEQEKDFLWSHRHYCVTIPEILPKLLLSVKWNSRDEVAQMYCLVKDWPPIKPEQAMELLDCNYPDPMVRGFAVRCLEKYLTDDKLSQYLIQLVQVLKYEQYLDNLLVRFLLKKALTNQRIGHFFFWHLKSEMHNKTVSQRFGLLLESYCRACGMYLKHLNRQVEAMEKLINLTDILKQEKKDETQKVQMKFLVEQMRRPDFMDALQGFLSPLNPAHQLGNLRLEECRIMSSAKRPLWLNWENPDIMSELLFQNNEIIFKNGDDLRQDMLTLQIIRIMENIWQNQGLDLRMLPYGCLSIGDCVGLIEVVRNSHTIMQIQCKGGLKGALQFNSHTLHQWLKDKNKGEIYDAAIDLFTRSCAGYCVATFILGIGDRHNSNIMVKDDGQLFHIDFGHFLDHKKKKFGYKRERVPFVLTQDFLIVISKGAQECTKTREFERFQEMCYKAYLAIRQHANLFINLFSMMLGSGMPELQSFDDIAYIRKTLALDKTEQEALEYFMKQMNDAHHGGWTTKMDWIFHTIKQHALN
T4 sequence (P27986 whole entry partner): as the sequence (P27986 whole entry partner) above
T2 sequence (P48736 whole entry): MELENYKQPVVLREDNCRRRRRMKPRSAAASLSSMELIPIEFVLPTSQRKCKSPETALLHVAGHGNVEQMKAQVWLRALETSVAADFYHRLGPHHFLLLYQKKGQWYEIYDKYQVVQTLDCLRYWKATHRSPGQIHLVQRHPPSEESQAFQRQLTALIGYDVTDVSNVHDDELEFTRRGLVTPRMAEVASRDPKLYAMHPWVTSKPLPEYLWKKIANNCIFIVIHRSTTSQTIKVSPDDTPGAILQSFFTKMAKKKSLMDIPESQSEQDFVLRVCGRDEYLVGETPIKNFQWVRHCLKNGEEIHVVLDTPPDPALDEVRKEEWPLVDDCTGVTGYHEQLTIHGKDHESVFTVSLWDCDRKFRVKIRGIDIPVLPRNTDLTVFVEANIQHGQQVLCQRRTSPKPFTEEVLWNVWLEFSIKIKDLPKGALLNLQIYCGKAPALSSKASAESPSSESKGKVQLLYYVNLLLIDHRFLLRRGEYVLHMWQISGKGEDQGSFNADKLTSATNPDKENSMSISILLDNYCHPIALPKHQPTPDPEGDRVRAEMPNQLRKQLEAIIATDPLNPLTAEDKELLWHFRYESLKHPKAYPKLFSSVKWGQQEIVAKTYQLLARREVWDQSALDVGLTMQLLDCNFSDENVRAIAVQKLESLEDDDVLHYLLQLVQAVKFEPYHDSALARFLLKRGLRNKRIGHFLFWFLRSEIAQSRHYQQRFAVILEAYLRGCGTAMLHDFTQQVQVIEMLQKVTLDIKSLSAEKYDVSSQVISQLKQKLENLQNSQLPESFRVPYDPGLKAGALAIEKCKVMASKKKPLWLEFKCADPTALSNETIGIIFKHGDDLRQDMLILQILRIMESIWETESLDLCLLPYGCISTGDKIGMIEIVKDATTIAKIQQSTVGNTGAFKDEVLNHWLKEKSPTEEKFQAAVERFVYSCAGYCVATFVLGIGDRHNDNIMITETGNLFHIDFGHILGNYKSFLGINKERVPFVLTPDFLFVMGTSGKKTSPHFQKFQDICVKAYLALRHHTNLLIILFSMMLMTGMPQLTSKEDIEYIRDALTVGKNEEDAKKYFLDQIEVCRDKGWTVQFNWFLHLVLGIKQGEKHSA
T1 sequence (P42338 whole entry): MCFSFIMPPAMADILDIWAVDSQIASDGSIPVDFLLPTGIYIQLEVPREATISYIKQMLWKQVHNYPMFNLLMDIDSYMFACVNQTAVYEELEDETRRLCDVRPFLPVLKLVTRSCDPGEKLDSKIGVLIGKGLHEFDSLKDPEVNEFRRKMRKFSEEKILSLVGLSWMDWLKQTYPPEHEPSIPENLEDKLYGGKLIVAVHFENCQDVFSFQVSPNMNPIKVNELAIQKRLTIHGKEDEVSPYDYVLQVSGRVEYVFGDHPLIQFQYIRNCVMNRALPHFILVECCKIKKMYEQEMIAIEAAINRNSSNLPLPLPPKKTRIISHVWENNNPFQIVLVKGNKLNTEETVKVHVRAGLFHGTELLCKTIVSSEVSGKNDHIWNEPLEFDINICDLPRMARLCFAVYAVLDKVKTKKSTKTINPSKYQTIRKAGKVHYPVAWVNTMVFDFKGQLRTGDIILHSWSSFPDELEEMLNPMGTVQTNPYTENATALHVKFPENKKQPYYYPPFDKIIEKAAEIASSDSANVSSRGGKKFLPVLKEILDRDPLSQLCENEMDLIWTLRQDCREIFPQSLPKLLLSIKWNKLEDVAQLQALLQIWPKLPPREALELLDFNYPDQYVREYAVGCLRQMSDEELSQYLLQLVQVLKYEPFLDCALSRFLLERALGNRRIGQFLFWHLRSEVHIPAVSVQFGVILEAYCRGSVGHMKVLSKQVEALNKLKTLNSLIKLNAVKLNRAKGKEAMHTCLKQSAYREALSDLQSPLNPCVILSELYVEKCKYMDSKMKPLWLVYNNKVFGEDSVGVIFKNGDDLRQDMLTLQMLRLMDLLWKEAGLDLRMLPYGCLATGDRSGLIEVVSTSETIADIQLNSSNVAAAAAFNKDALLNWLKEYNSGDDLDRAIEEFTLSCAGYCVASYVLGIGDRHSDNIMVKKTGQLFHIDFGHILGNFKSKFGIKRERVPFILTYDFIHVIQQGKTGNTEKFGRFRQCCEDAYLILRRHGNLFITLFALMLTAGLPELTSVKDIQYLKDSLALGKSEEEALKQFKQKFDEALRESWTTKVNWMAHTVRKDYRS
T1 sequence (P27986 whole entry partner): as the sequence (P27986 whole entry partner) above

SMILES | Beta/Delta Ratio [1] | IC50 [2] [µM] | Gamma/Delta Ratio [2] | EC50 [3] [µM] | EC50 [4] [µM] | IC50 [5] [µM] | Alpha/Delta Ratio [6] | Gamma/Delta Ratio [7] | IC50 [8] [µM] | Alpha/Delta Ratio [9] | remaining activity at 100 µM ([9]; read-out: percent activity remaining at 100 μM) [%] | Beta/Delta Ratio [10] | remaining activity at 100 µM [10] [%] | IC50 [1] [µM] | melting point [°C] | IC50 [7] [µM] | IC50 [9] [µM] | IC50 [10] [µM] | EC50 [11] [µM] | remaining activity at 100 µM ([9]; read-out: percent activity remaining at 100 μM, 20 μM ATP, 100 μM compound did not inhibit by at least 50%) [%]
CC(=O)O.O=c1c2ccccc2nc(CSc2ncnc3[nH]cnc23)n1N1CCOCC1 [Compound D-039, 3-morpholin-4-yl-2-(9H-purin-6-ylsulfanylmethyl)-3H-quinazolin-4-one, acetate salt] | 50 | 38 | 42 | 0.9 ± 0.1 | 5 | 2.6 | 65 | 44 | 0.9 | >111 | 77 | >111 | 66 |  |  |  |  |  |  | 
Cc1ccccc1-n1c(CSc2ncnc3[nH]cnc23)nc2cccc(Cl)c2c1=O [Compound D-010, 5-Chloro-2-(9H-purin-6-ylsulfanylmethyl)-3-o-tolyl-3H-quinazolin-4-one] | 144 | 0.7 | 12 | 0.2 ± 0.1 | 0.3 ± 0.3 | 0.23 ± 0.2 | 658 | 27 | 0.06 | 800 |  | 183 |  | 33 ± 4 | 213.9 | 6 ± 3 | 48 | 11 |  | 
O=c1c2c(F)cccc2nc(CSc2ncnc3[nH]cnc23)n1Cc1ccccc1 [Compound D-043, 3-benzyl-5-fluoro-2-(9H-purin-6-ylsulfanylmethyl)-3H-quinazolin-4-one] |  |  |  | 1.4 |  |  |  |  | 2.1 | >47 |  | >47 | 77 |  |  |  |  |  | 2.6 | 83
COc1ccccc1-n1c(CSc2ncnc3[nH]cnc23)nc2cccc(C)c2c1=O [Compound D-047, 3-(2-methoxyphenyl)-5-methyl-2-(9H-purin-6-ylsulfanylmethyl)-3H-quinazolin-4-one] | 150 | 0.5 | 5.6 | 0.3 | 0.5 ± 0.2 | 0.2 | 810 | 23 | 0.09 | 333 |  | 100 |  | 30 |  | 4.5 | 30 | 9 |  | 
